Assay results as given in ChEMBL document CHEMBL1201862, “PubChem BioAssay data set” (2004).
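These data come from cells grown in 96-well plates and exposed to compound for 48 hours at five concentrations. Abbreviation: GI50, concentration required for 50% inhibition of growth.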 Active and inactive are the calls of the source. No stated cut-off is given here; in the data, active = GI50 up to about 1.1 µM and inactive = higher.

Key:
Test in all cases: NCI tumour cell line growth inhibition, 48 h
HT-29 = test system: HT-29
IGROV-1 = test system: IGROV-1
LOX IMVI = test system: LOX IMVI
MDA-MB-231 = test system: MDA-MB-231
MDA-MB-435 = test system: MDA-MB-435
MDA-N = test system: MDA-N
NCI-H23 = test system: NCI-H23
NCI-H460 = test system: NCI-H460
NCI/ADR-RES = test system: NCI/ADR-RES
OVCAR-8 = test system: OVCAR-8
PC-3 = test system: PC-3
RPMI-8226 = test system: RPMI-8226
RXF 393 = test system: RXF 393
SF-268 = test system: SF-268
SF-295 = test system: SF-295
SK-MEL-2 = test system: SK-MEL-2
SK-MEL-5 = test system: SK-MEL-5
SN12C = test system: SN12C
SNB-75 = test system: SNB-75
UO-31 = test system: UO-31

Row | Structure (SMILES) | GI50 (HT-29) | GI50 (IGROV-1) | GI50 (LOX IMVI) | GI50 (MDA-MB-231) | GI50 (MDA-MB-435) | GI50 (MDA-N) | GI50 (NCI-H23) | GI50 (NCI-H460) | GI50 (NCI/ADR-RES) | GI50 (OVCAR-8) | GI50 (PC-3) | GI50 (RPMI-8226) | GI50 (RXF 393) | GI50 (SF-268) | GI50 (SF-295) | GI50 (SK-MEL-2) | GI50 (SK-MEL-5) | GI50 (SN12C) | GI50 (SNB-75) | GI50 (UO-31)
1 | Cn1c2ccccc2c2c(-c3ccccc3)cc3c(c21)C(=O)C=CC3=O | 3.83 µM (inactive) | 2.3 µM (inactive) | 3.26 µM (inactive) | 2.43 µM (inactive) | 1.92 µM (inactive) | 2.37 µM (inactive) | 1.94 µM (inactive) | 6.07 µM (inactive) | 3.33 µM (inactive) | 2.07 µM (inactive) | 3.02 µM (inactive) | 1.15 µM (inactive) | 2.2 µM (inactive) | 3.36 µM (inactive) | > 10 µM (inactive) | 3.03 µM (inactive) | 2.96 µM (inactive) | 2.39 µM (inactive) | > 5.66 µM (inactive) | 1.61 µM (inactive)
2 | COc1cc(C2SC(=N)Nc3c2c(C)nn3C(=O)c2ccccc2O)cc(OC)c1OC (stereo not given) | > 10 µM (inactive) | 2.04 µM (inactive) | 5.16 µM (inactive) | 7.89 µM (inactive) | 6.78 µM (inactive) | 6.14 µM (inactive) | 8.3 µM (inactive) | 7.41 µM (inactive) | 4.38 µM (inactive) | > 10 µM (inactive) | 5.48 µM (inactive) | > 10 µM (inactive) | 8.51 µM (inactive) | 6.71 µM (inactive) | 3.51 µM (inactive) | > 10 µM (inactive) | 3.78 µM (inactive) | 9.18 µM (inactive) | 1.87 µM (inactive) | 6.18 µM (inactive)
3 | CCOC(=O)c1[nH]c2nc(SC)nc(Nc3ccccc3Cl)c2c1N | 11.7 µM (inactive) | 26.9 µM (inactive) | 11.8 µM (inactive) | 16.6 µM (inactive) | 31.6 µM (inactive) | 30.5 µM (inactive) | 19.2 µM (inactive) | 11.6 µM (inactive) | 18.8 µM (inactive) | 16 µM (inactive) | 15.7 µM (inactive) | 15.2 µM (inactive) | 12.4 µM (inactive) | 19.8 µM (inactive) | 21 µM (inactive) | 29 µM (inactive) | 6.21 µM (inactive) | 36.2 µM (inactive) | 16.2 µM (inactive) | 15.7 µM (inactive)
4 | Oc1ccc2ccccc2c1/C=N/Cc1c(O)ccc2ccccc12 | > 100 µM (inactive) | 35.6 µM (inactive) | 48.1 µM (inactive) | 82.4 µM (inactive) | 77.6 µM (inactive) | 51.1 µM (inactive) | 42.7 µM (inactive) | 28.1 µM (inactive) | 33.8 µM (inactive) | 34.5 µM (inactive) | 38.7 µM (inactive) | 12.6 µM (inactive) | 1.39 µM (inactive) | 37.2 µM (inactive) | 39.5 µM (inactive) | 71.8 µM (inactive) | 71.9 µM (inactive) | 32.8 µM (inactive) | 37.9 µM (inactive) | 28.7 µM (inactive)
5 | COc1cccc(-c2cc(O)c3c(C)cc(C)nc3n2)c1 | 0.34 µM (active) | 0.486 µM (active) | 0.703 µM (active) | 1.6 µM (inactive) | 0.0512 µM (active) | 0.067 µM (active) | 0.746 µM (active) | 0.455 µM (active) | 1.13 µM (inactive) | 0.944 µM (active) | 0.304 µM (active) | 0.345 µM (active) | 1.29 µM (inactive) | 0.578 µM (active) | 0.493 µM (active) | 0.615 µM (active) | 0.301 µM (active) | 0.845 µM (active) | 0.167 µM (active) | 0.867 µM (active)
